From US9642831B2, “Substituted chromanes and method of use” (AbbVie S.á.r.l., priority 2014, dated 2017) come the findings set out here.

Test [1] has as its target T1, F508delCFTR (Homo sapiens, UniProt P13569, DEL508-508). Kind of test: Cell Surface Expression-Horse Radish Peroxidase (CSE-HRP) assay. Type of test: cell-based. Also noted: expressed in transfected cells; host or cells: CFBE41o- human lung derived epithelial cell line, doxycycline-inducible. As to conditions: CFBE4lo-F508delCFTR-HRP cells; for EC50: 18-24 hours at 33° C., 8-point curve, highest concentration 20 μM, luminescence readout. Put shortly:
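Following 18-24 h compound exposure at 33° C. Expression was doxycycline-induced beforehand. % activity versus DMSO and a 3 μM corrector control gave maximum activity and EC50 from a variable-Hill sigmoidal fit.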

Test [2] has as its target T1, F508delCFTR. Description: Transepithelial Clamp Circuit (TECC-24) conductance assay on primary human bronchial epithelial cells (hBE-TECC). Type of test: cell-based. Also noted: cells isolated from CF patients with the homozygous mutation; endogenous in cells; host or cells: primary human bronchial epithelial (hBE) cells from F508del/F508del CF patients. As to conditions: for EC50: primary hBE cells from F508del/F508delCFTR patients, corrector 18-24 hours at 37° C., equivalent short circuit current (Ieq), with control potentiator 1 μM; for Emax: relative to positive control (3 μM Example 1 coupled with control potentiator = 100%), primary hBE F508del/F508del cells, read-out: Maximum % activity (%). From the text:
Transepithelial Clamp Circuit on Human Bronchial Epithelial Cells Conductance Assay:
A cell based assay using the primary human bronchial epithelial cells (hBE) was used as a secondary assay to test novel F508delCFTR correctors for their activity on primary hBE cells with F508del/F508del CFTR mutation. The assay used a TECC-24 (Transepithelial Clamp Circuit for 24 wells) instrument that measures the functionality of the mutated channel by measuring the equivalent short circuit current (Ieq) generated by the polarized epithelial cells. The instrument works by measuring the transepithelial potential difference (Vt) and transepithelial resistance (Rt) in an open circuit format, and the Ieq is calculated by using Ohms law (Ieq=Vt/Rt). The assay was run in a 24-well format and all 24-wells were measured at the same time point giving a higher throughput for this assay.
Primary human bronchial epithelial (hBE) cells from F508del/F508delCFTR patients were expanded from 1×10^6 to 250×10^6 cells (Neuberger T, Burton B, Clark H and VanGoor F; Cystic Fibrosis, Methods in Mole Biol 741; eds. Amaral M D and Kunzelmann K, 2011). For this purpose, cells isolated from CF patients with the homozygous mutation were seeded onto 24 well Corning (Cat #3378) filter plates that were coated with 3T3 conditioned media and grown at an air-liquid interface for 35 days using an Ultroser® G supplemented differentiation media. Apical surface mucus was removed 72 hours before the experiment using 3 mM dithiothreitol (DTT) in phosphate buffered saline (PBS). The apical surface was washed again 24 hours before the experiment using PBS. The cells were incubated with the desired dose response of the corrector compounds 18-24 hours at 37° C., 5% CO2. The corrector compounds are only added on the basolateral side of the epithelial cells.
On the day of measuring the corrector activity on the TECC, the cells were switched into a bicarbonate and serum free F-12 Coon's medium and allowed to equilibrate for 90 minutes in a CO2 free incubator. At the time of measurement, the apical and basolateral sides of the filter were bathed with the F-12 Coon's modification media (with 20 mM 4-(2-hydroxyethyl)-1-piperazineethanesulfonic acid (HEPES), pH 7.4 (using 1 M tris(hydroxymethyl)aminormethane (Tris)), and the measurements were made at 36.5° C. Transepithelial voltage (Vt) and transepithelial resistance (Rt) were measured using a 24 channel transepithelial current clamp (TECC-24). Current responses to the sequential addition of benzamil (apical 6 μM addition; for inhibiting epithelial ENaC channel), forskolin (apical and basolateral 10 μM addition; for activating the CFTR channel), control potentiator (N-(3-carbamoyl-5,5,7,7-tetramethyl-4,7-dihydro-5H-thieno[2,3-c]pyran-2-yl)-1H-pyrazole-5-carboxamide; apical and basolateral 1 μM addition; for potentiating the CFTR channel) and bumetanide (basolateral 20 μM addition; for inhibiting the Na:2Cl:K co-transporter, an indirect measure of inhibiting the Cl-secretion driven by CFTR channel) were measured.
All plates contained negative controls (dimethyl sulfoxide, DMSO) which coupled with the control potentiator (N-(3-carbamoyl-5,5,7,7-tetramethyl-4,7-dihydro-5H-thieno[2,3-c]pyran-2-yl)-1H-pyrazole-5-carboxamide) sets the null response and positive controls (3 μM of 3-[(2R,4R)-4-({[1-(2,2-difluoro-1,3-benzodioxol-5-yl)cyclopropyl]carbonyl}amino)-7-methoxy-3,4-dihydro-2H-chromen-2-yl]benzoic acid) coupled with the control potentiator sets the 100% response to measure the correction of the mutated CFTR channel. The maximum percent activity is reported relative to the positive control value.
The % activity measured at each of the 6 test concentrations of the test compound was normalized to the on-plate positive control using the following formula: % activity=[(test compound response−DMSO response)/(positive control response−DMSO response)]*100 […]

Where [3] appears, read: maximum % activity at any tested concentration, normalized to on-plate positive control (3 μM Example 1).

T1 sequence (P13569 with tags, fused parts or gaps DEL508-508): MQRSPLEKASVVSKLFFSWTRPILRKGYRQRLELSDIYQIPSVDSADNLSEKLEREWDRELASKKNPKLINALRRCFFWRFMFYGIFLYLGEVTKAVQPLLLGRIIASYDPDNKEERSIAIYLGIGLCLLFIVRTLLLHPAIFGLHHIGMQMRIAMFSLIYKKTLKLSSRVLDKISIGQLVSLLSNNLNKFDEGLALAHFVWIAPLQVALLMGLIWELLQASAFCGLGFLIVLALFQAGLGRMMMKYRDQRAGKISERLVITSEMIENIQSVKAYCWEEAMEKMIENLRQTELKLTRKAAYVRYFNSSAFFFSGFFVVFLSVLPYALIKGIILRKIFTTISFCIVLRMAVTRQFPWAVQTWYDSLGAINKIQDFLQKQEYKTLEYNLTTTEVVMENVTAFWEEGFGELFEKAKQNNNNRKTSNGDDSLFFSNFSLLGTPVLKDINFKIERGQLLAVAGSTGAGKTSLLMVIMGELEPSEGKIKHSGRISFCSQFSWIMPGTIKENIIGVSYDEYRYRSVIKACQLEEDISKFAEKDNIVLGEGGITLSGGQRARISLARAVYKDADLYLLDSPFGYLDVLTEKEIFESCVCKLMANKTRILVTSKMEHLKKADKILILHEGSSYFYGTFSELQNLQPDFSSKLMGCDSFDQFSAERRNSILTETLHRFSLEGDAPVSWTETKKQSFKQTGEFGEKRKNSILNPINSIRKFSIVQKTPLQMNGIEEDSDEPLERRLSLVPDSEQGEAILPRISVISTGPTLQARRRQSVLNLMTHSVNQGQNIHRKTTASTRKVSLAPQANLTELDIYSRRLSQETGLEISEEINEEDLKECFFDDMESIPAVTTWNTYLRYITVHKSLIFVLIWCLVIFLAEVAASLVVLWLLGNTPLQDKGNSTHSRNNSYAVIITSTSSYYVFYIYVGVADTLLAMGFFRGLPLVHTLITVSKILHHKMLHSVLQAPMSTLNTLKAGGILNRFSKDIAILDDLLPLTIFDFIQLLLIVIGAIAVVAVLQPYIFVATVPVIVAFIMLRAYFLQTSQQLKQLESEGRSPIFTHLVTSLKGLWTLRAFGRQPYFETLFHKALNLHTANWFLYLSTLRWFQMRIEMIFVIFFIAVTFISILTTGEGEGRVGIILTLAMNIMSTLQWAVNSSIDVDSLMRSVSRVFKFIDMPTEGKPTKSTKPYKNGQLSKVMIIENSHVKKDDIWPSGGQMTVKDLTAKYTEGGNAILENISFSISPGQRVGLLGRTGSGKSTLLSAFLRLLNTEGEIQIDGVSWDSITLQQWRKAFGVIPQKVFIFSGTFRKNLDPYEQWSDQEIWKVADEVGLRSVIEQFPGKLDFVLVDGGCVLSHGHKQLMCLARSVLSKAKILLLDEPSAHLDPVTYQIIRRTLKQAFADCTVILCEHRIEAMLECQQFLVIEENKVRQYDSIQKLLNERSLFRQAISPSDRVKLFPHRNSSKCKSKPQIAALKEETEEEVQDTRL

A word on the EC50: it is the concentration at which the effect is half-maximal. As for `COc1ccc2c(c1)O[C@@H](C13CC(C(=O)O)(C1)C3)C[C@H]2NC(=O)C1(c2ccc3c(c2)OC(F)(F)O3)CC1` (racemic) [Example 148, rac-3-[(2R,4R)-4-({[1-(2,2-difluoro-1,3-benzodioxol-5-yl)cyclopropyl]carbonyl}amino)-7-methoxy-3,4-dihydro-2H-chromen-2-yl]bicyclo[1.1.1]pentane-1-carboxylic acid], the EC50 turned out to be 2.12 µM in test [1] and 1.1 µM in test [2]. Further, the results for the Emax in test [1] (setting [3]) and in test [2] were 77% and 44%, respectively.

For the compound `O=C(O)C1CCCC([C@H]2C[C@@H](NC(=O)C3(c4ccc5c(c4)OC(F)(F)O5)CC3)c3ccc(OC(F)F)cc3O2)C1` (stereo partly drawn) [Example 26, 3-[(2R,4R)-4-({[1-(2,2-difluoro-1,3-benzodioxol-5-yl)cyclopropyl]carbonyl}amino)-7-(difluoromethoxy)-3,4-dihydro-2H-chromen-2-yl]cyclohexanecarboxylic acid], the EC50 came out at 0.34 µM in test [1] and 0.11 µM in test [2]. The Emax is 93% in test [1] (setting [3]) and 88% in test [2].

As to `O=C(O)c1cccc([C@H]2C[C@@H](NC(=O)C3(c4ccc5c(c4)OC(F)(F)O5)CC3)c3ccc(OC(F)F)cc3O2)c1` [Example 27, 3-[(2R,4R)-4-({[1-(2,2-difluoro-1,3-benzodioxol-5-yl)cyclopropyl]carbonyl}amino)-7-(difluoromethoxy)-3,4-dihydro-2H-chromen-2-yl]benzoic acid], the EC50 in test [1] is 0.12 µM; in test [2], 0.075 µM. In addition, the Emax in test [1] (setting [3]) stood at 113%; in test [2], 117%.

Regarding `O=C(O)c1cccc([C@H]2C[C@@H](NC(=O)C3(c4ccc5c(c4)OC(F)(F)O5)CC3)c3cccc(F)c3O2)c1` [Example 119, 3-[(2R,4R)-4-({[1-(2,2-difluoro-1,3-benzodioxol-5-yl)cyclopropyl]carbonyl}amino)-8-fluoro-3,4-dihydro-2H-chromen-2-yl]benzoic acid], the figures for the EC50 in test [1] and in test [2] were 0.88 µM and 0.45 µM, respectively. Moreover, the Emax in test [1] (setting [3]) worked out at 71%; in test [2] it was 80%.

On to `O=C(O)c1ccc([C@H]2C[C@@H](NC(=O)C3(c4ccc5c(c4)OC(F)(F)O5)CC3)c3ccccc3O2)cc1` [Example 121, 4-[(2R,4R)-4-({[1-(2,2-difluoro-1,3-benzodioxol-5-yl)cyclopropyl]carbonyl}amino)-3,4-dihydro-2H-chromen-2-yl]benzoic acid], for which the EC50 in test [1] was 0.13 µM; in test [2] it was 0.038 µM. The Emax worked out at 102% in test [1] (setting [3]) and 87% in test [2].

In test [1], `COC(=O)c1ccc([C@H]2C[C@@H](NC(=O)C3(c4ccc5c(c4)OC(F)(F)O5)CC3)c3ccc(OC)cc3O2)cc1F` [Example 137, methyl 4-[(2R,4R)-4-({[1-(2,2-difluoro-1,3-benzodioxol-5-yl)cyclopropyl]carbonyl}amino)-7-methoxy-3,4-dihydro-2H-chromen-2-yl]-2-fluorobenzoate] came in with an EC50 of 0.14 µM. Also, in test [1] (setting [3]), the Emax turned out to be 131%.

As to `COC(=O)c1ccc([C@H]2C[C@@H](NC(=O)C3(c4ccc5c(c4)OC(F)(F)O5)CC3)c3ccc(OC)cc3O2)c(F)c1` [Example 138, methyl 4-[(2R,4R)-4-({[1-(2,2-difluoro-1,3-benzodioxol-5-yl)cyclopropyl]carbonyl}amino)-7-methoxy-3,4-dihydro-2H-chromen-2-yl]-3-fluorobenzoate], a half-maximal effect in test [1] (EC50) was put at 0.05 µM. This compound also gave an Emax in test [1] (setting [3]) of 119%.

Turning to `COc1ccc2c(c1)O[C@@H](c1ccc(C(=O)O)c(F)c1)C[C@H]2NC(=O)C1(c2ccc3c(c2)OC(F)(F)O3)CC1` [Example 139, 4-[(2R,4R)-4-({[1-(2,2-difluoro-1,3-benzodioxol-5-yl)cyclopropyl]carbonyl}amino)-7-methoxy-3,4-dihydro-2H-chromen-2-yl]-2-fluorobenzoic acid], the EC50 in test [1] stood at 0.1 µM; in test [2], 0.0313 µM. Besides, the Emax in test [1] (setting [3]) was 115%; in test [2], 100%.

Compound `CCOC(=O)C1CC(C2CC(NC(=O)C3(c4ccc5c(c4)OC(F)(F)O5)CC3)c3ccccc3O2)C1` (stereo not shown) [Example 151, ethyl 3-[4-({[1-(2,2-difluoro-1,3-benzodioxol-5-yl)cyclopropyl]carbonyl}amino)-3,4-dihydro-2H-chromen-2-yl]cyclobutanecarboxylate] showed an EC50 in test [1] of 6.12 µM. For the same compound, the Emax in test [1] (setting [3]) stood at 64%.

Regarding `O=C(O)C1CC(C2CC(NC(=O)C3(c4ccc5c(c4)OC(F)(F)O5)CC3)c3ccccc3O2)C1` (stereo not shown) [Example 152, 3-[4-({[1-(2,2-difluoro-1,3-benzodioxol-5-yl)cyclopropyl]carbonyl}amino)-3,4-dihydro-2H-chromen-2-yl]cyclobutanecarboxylic acid], the midpoint of the response in test [1], the EC50, lay at 6.35 µM. In addition, in test [1] (setting [3]), the Emax is 59%.

`O=C(O)c1ccc([C@H]2C[C@@H](NC(=O)C3(c4cc5c(cc4Br)OC(F)(F)O5)CC3)c3ccc(OC(F)F)cc3O2)cc1` [Example 202, 4-[(2R,4R)-4-({[1-(6-bromo-2,2-difluoro-1,3-benzodioxol-5-yl)cyclopropyl]carbonyl}amino)-7-(difluoromethoxy)-3,4-dihydro-2H-chromen-2-yl]benzoic acid]: the EC50 in test [1] turned out to be 0.01 µM. For the same compound, in test [1] (setting [3]), the Emax was 142%.

With `COC(=O)c1ccc([C@H]2C[C@@H](NC(=O)C3(c4cc5c(cc4Br)OC(F)(F)O5)CC3)c3ccc(OC)cc3O2)cc1` [Example 202F, methyl 4-((2R,4R)-4-(1-(6-bromo-2,2-difluorobenzo[d][1,3]dioxol-5-yl)cyclopropanecarboxamido)-7-methoxychroman-2-yl)benzoate], the EC50 in test [1] turned out to be 0.04 µM. For the same compound, the Emax in test [1] (setting [3]) was 131%.

As for `CS(=O)(=O)NC(=O)c1ccc([C@H]2C[C@@H](NC(=O)C3(c4ccc5c(c4)OC(F)(F)O5)CC3)c3ccc(OC(F)F)cc3O2)cc1` [Example 203, 4-[(2R,4R)-4-({[1-(2,2-difluoro-1,3-benzodioxol-5-yl)cyclopropyl]carbonyl}amino)-7-(difluoromethoxy)-3,4-dihydro-2H-chromen-2-yl]-N-(methylsulfonyl)benzamide], in test [1], the EC50 is 0.69 µM. Also, in test [1] (setting [3]), the Emax was found to be 157%.

“N-[2-(3,4-dichlorophenyl)-3,4-dihydro-2H-chromen-4-yl]-1-(2,2-difluoro-1,3-benzodioxol-5-yl)cyclopropanecarboxamide [Example 66]” gave an EC50 in test [1] of 6.1 µM. Further, the “Maximum % activity (%)” value in test [1] (setting [3]) is 89%.
